Data reported in paper PMC10403534, “XCP1 cleaves Pathogenesis-related protein 1 into CAPE9 for systemic immunity in Arabidopsis” (Nature Communications, 2023).

Biological target: T1, XCP1-His (Arabidopsis thaliana, UniProt O65493)
T1 construct: C-terminal 6xHis tag kept; from Arabidopsis cDNA; transiently expressed in Nicotiana benthamiana leaves with P19, Ni-NTA purified
Assay: inhibition of Ac-CNYD-AMC cleavage, […] h preincubation, […] h incubation
Format: biochemical
Settings: 1 ug enzyme, 25 uM Ac-CNYD-AMC; covalent

T1 sequence (O65493 137-355): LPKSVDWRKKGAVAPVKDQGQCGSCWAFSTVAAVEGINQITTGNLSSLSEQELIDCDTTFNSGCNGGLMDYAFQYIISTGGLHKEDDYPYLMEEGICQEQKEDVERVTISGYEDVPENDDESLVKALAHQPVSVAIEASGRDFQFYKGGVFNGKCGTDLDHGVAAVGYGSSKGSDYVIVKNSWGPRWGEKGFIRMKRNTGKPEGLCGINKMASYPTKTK

CC(C)C[C@H](NC(=O)[C@H]1O[C@@H]1C(=O)O)C(=O)NCCCCNC(=N)N [E-64]
inhibition of Ac-CNYD-AMC cleavage, 1 h preincubation, 10 h incubation: CNYDase activity of purified XCP1-His was enhanced by CaCl2 and inhibited by ZnCl2 and E-64
